These molecules were tested on H5N1.
Assay type: cell-based
`O=c1c(O)cc([C@H]2Oc3cc(O)cc(O)c3C[C@H]2O)cc2c([C@H]3Oc4cc(O)cc(O)c4C[C@H]3O)cc(O)c(O)c12` [theaflavin] was tested, and the “inhibition of H5N1 infections in mammalian cells by blocking the attachment and entry into the cells” value (“inhibition of H5N1 infections” for short) was “inhibits H5N1 infections in mammalian cells”.
With theaflavin-3′-gallate the “inhibition of H5N1 infections” value was “inhibits H5N1 infections in mammalian cells”.
In the case of `O=C(O[C@@H]1Cc2c(O)cc(O)cc2O[C@@H]1c1cc(=O)c(O)c2c(O)c(O)cc([C@H]3Oc4cc(O)cc(O)c4C[C@H]3O)c2c1)c1cc(O)c(O)c(O)c1` [theaflavin-3 gallate], the “inhibition of H5N1 infections” value is reported as “inhibits H5N1 infections in mammalian cells”.
For (−)-epigallocatechin gallate, the “inhibition of H5N1 infections” value was “inhibits H5N1 infections in mammalian cells”.
theaflavin-3,3′-digallate was tested, and the “inhibition of H5N1 infections” value was “inhibits H5N1 infections in mammalian cells”.

From US20130253047A1 (priority 2006, published 2013)
